Tests used:
[1] = Treatment of a person suffering from autoimmune-mediated limbic encephalitis (single-patient case, anti-NMDAR encephalitis)
[2] = multiple sclerosis patients; cited from earlier work

For `NC(=O)N1c2ccccc2C=Cc2ccccc21` [carbamazepine], the “response of generalized tonic-clonic repetitive seizures to anticonvulsants” value (“response” for short) ([1]; before cladribine) was “did not respond”.

For `Nc1nc(Cl)nc2c1ncn2[C@H]1C[C@H](O)[C@@H](CO)O1` [cladribine, 2-chloro-2′-deoxyadenosine], the “time at which therapeutic effect on MS is evident” value [2] is given as “three months after treatment”, the “period of beneficial effects on the disease without need for frequent retreatment” value ([1]; after a relatively short period of treatment) is given as “over 10 months to two years” and the “disability reported by patient” value ([1]; after recovery following cladribine, able to perform all usual activities) is given as “no significant disability”. The recurrence of disease ([1]; follow up of 2 years, 5 more maintenance courses (20 mg over 2 consecutive days) with 2 months intervals) was “did not show any recurrence of disease”, the neurological condition ([1]; over subsequent 4 weeks after the first 3 weeks following cladribine) was “returned to normal neurological condition” and the “onset of effect on severe symptoms” value ([1]; patient with refractory autoimmune encephalitis) was “rapid effect”. For the same compound, the neurological sequel ([1]; remaining after recovery following cladribine) was “parasomnia and complete loss of memory covering the entire hospitalization period”.

For `O=C1CN=C(c2ccccc2Cl)c2cc([N+](=O)[O-])ccc2N1` [clonazepam], the “response” value ([1]; before cladribine) was “did not respond”.

In the case of `O=C(CCCN1CCC(O)(c2ccc(Cl)cc2)CC1)c1ccc(F)cc1` [haloperidol], the “psychiatric condition under standard antipsychotic treatment” value ([1]; during entire stay in the psychiatric ward, before cladribine) is reported as “without any improvement”.

With `O=C1NC(=O)C(c2ccccc2)(c2ccccc2)N1` [phenytoin] the “response” value ([1]; before cladribine) was “did not respond”.

In the case of `CCCC(CCC)C(=O)[O-].[Na+]` [sodium valproate], the “response” value ([1]; before cladribine) is reported as “did not respond”.
